As usually defined, the EC50 is the concentration needed to bring the measured effect to its halfway point. Broadly, the Ki is the equilibrium dissociation constant of an inhibitor or competing ligand from its target. A word on the efflux ratio: it is a quotient of directional permeabilities that is used to spot active efflux.

The structures appear in SMILES notation.

Experimental findings from patent publication US20240374573A1, “IMIDAZOLE CONTAINING COMPOUNDS, DERIVATIVES THEREFORE, AND USES THEREOF” (AglaeaPharma Inc., priority 2023, published 2024) are described below.

The target of data set [1] is T1, α2AAR (α2A-adrenergic receptor) (Homo sapiens, UniProt P08913).
T1 construct: expressed in transfected cells; host or cells: HEK293
T1 sequence (P08913 1-465): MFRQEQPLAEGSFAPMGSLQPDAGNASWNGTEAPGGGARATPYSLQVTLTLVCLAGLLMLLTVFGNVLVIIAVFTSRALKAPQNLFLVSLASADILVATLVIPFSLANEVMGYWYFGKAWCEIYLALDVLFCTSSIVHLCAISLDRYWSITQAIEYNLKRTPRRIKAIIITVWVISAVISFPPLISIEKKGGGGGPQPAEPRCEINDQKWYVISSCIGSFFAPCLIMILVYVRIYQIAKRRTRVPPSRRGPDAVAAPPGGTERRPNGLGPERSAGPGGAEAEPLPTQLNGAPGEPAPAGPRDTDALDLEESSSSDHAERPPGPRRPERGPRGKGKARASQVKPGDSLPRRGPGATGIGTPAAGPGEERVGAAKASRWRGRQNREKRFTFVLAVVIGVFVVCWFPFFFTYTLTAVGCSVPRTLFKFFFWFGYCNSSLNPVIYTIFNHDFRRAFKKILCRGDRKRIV
Nature of the data set: α2AAR FLIPR assay (agonist activity). Format: cell-based. The settings on record: FLIPR, α2AAR cell line hosted in HEK293 cells; read-out: α2A agonist activity (EC50). In outline:
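HEK293 cells expressing α2AAR loaded with Fluo-4 Direct plus probenecid for 50 min at 37° C and 10 min at room temperature, then treated with serially diluted compounds.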

Data set [2] has as its target T2, α2AAR (Homo sapiens, UniProt P08913).
T2 construct: host or cells: HEK293 (membranes)
T2 sequence (P08913 1-465): T1 sequence (P08913 1-465)
Description: α2AAR binding assay ([3H]-RX 821002 radioligand). To be noted: [3H]-RX 821002 0.5 nM, HEK293 membranes; read-out: α2A affinity (Ki).

For data set [3], the target named is P-glycoprotein (P-gp, MDR1) (Homo sapiens, UniProt P08183). Description: in vitro. To be noted: dog, MDCK-MDR1, pH 7.4. On the procedure:
MDR1-MDCK II cells (obtained from Piet Borst at the Netherlands Cancer Institute) were seeded onto Polycarbonate membranes (PC) in 96-well insert systems at 3.33×10^5 cells/mL until to 4-7 days for confluent cell monolayer formation.
Selected α2AR agonist from table 3s were diluted with the transport buffer (HBSS with 10.0 mM Hepes, pH7.4) from DMSO stock solution to a concentration of 2 μM (DMSO<1%) and applied to the apical or basolateral side of the cell monolayer. […] Permeation of the test compounds from A to B direction and/or B to A direction was determined in duplicate. Digoxin was tested at 10.0 μM from A to B direction and B to A direction in duplicate. The plate was incubated for 2.5 hours in CO2 incubator at 37.0±1.0° C., with 5.0% CO2 at saturated humidity without shaking. In addition, the efflux ratio of each compound was also determined. Test and reference compounds were quantified by LC/MS/MS analysis based on the peak area ratio of analyte/IS.
After transport assay, lucifer yellow rejection assay was applied to determine the cell monolayer integrity. Buffers were removed from both apical and basolateral chambers, followed by the addition of 75 μL of 100 μM lucifer yellow in transport buffer and 250 μL transport buffer in apical and basolateral chambers, respectively. The plate was incubated for 30 minutes at 37.0° C. with 5.0% CO2 and 95.0% relative humidity without shaking. After 30 minutes incubation, 20 μL of lucifer yellow samples were taken from the apical sides, followed by the addition of 60 μL of transport Buffer. And then 80 μL of lucifer yellow samples were taken from the basolateral sides. The relative fluorescence unit (RFU) of lucifer yellow was measured at 425/528 nm (excitation/emission) with an Envision plate reader.
The apparent permeability coefficient Papp (cm/s) was calculated using the equation: […]
wherein dCr/dt is the cumulative concentration of compound in the receiver chamber as a function of time (μM/s); Vr is the solution volume in the receiver chamber (0.075 mL on the apical side, 0.25 mL on the basolateral side); A is the surface area for the transport, i.e. 0.143 cm2 for the area of the monolayer; and C0 is the initial concentration in the donor chamber (μM).
The efflux ratio was calculated using the equation: […]

P-glycoprotein (P-gp, MDR1), sequence (P08183 whole entry): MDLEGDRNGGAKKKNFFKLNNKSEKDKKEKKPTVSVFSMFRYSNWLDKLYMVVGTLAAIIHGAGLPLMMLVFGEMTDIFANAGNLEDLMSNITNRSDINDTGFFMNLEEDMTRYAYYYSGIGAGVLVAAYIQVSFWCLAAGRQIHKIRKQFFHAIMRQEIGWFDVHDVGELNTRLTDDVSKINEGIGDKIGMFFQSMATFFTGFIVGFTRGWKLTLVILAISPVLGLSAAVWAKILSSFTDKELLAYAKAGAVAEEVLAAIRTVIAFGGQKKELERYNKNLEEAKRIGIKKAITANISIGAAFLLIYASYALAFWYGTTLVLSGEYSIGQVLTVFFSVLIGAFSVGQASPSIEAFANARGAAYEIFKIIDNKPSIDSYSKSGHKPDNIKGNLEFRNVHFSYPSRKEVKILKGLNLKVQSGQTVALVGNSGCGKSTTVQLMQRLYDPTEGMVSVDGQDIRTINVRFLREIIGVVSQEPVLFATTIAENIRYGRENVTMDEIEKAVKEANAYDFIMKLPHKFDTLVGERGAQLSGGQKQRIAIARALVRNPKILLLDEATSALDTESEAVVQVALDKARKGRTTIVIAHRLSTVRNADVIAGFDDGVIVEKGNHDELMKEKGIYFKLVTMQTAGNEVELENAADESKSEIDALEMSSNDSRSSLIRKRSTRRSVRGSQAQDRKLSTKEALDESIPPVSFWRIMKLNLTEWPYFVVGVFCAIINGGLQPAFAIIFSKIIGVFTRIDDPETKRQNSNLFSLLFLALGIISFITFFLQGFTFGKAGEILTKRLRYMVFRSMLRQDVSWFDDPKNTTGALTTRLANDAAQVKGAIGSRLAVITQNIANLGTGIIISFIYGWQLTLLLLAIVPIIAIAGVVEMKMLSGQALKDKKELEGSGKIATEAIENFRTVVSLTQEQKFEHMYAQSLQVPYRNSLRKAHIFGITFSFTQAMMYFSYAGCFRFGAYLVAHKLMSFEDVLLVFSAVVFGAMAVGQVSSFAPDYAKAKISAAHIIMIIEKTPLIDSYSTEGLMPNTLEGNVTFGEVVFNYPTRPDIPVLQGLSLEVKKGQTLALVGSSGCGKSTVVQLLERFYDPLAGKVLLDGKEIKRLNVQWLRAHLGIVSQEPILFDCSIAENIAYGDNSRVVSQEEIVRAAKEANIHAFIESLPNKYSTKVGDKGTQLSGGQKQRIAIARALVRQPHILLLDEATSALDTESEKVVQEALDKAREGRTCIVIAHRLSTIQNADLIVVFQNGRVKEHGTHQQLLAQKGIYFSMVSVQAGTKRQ

Turning to `Cc1c(CF)cccc1C(c1cccc(NS(C)(=O)=O)c1)c1c[nH]cn1` (racemic) [compound 118], the EC50 in data set [1] was 10 to 50 nM. Moreover, in data set [2], the Ki lay within 10 to 50 nM. Also, the efflux ratio at 2.5 h, 2 μM in data set [3] amounted to 25.3.
Take `CONC(=O)c1cccc(C(c2c[nH]cn2)c2cccc(C)c2C)c1` (single isomer, unassigned) [1-B]: in data set [1], the EC50 lay within 10 to 50 nM. For the same compound, in data set [2], the Ki lay within 50 to 250 nM. The efflux ratio at 2.5 h, 2 μM in data set [3] amounted to 51.
For the compound `Cc1cccc(C(c2cccc(C(N)=O)c2)c2c[nH]cn2)c1C` (single isomer, unassigned) [5-B], the EC50 in data set [1] was in the range of 10 to 50 nM. In addition, in data set [2], the Ki is 10 to 50 nM. Further, the efflux ratio at 2.5 h, 2 μM in data set [3] turned out to be 33.2.
For `Cc1cccc(C(c2c[nH]cn2)c2cccc(C(N)=O)c2F)c1C` (single isomer, unassigned) [45-B], in data set [1], the EC50 was 10 to 50 nM. In addition, the Ki in data set [2] is < 10 nM. Moreover, the efflux ratio at 2.5 h, 2 μM in data set [3] turned out to be 14.
In the same order, the values of `Cc1cccc(C(c2cccc(C(=O)NC3CCOCC3)c2)c2c[nH]cn2)c1C` (single isomer, unassigned) [121-B] are < 10 nM, < 10 nM and 30.9.
The corresponding values for `Cc1cccc(C(c2c[nH]cn2)c2cccc(C(=O)NCC3CCOCC3)c2F)c1C` (single isomer, unassigned) [124-B] are 10 to 50 nM, < 10 nM and 10.3.
The corresponding values for `Cc1cccc(C(Cc2ccc(C(N)=O)c(F)c2)c2c[nH]cn2)c1C` (single isomer, unassigned) [156-B] are < 10 nM, < 10 nM and 2.86.
For the compound `Brc1c(NC2=NCCN2)ccc2nccnc12` [Brimonidine, brimonidine, reference compound], the efflux ratio at 2.5 h, 2 μM in data set [3] is 0.83.
Regarding `C[C@H]1O[C@@H](O[C@H]2[C@@H](O)C[C@H](O[C@H]3[C@@H](O)C[C@H](O[C@H]4CC[C@@]5(C)[C@H](CC[C@@H]6[C@@H]5C[C@@H](O)[C@]5(C)[C@@H](C7=CC(=O)OC7)CC[C@]65O)C4)O[C@@H]3C)O[C@@H]2C)C[C@H](O)[C@@H]1O` [Digoxin, reference compound], in data set [3], the efflux ratio at 2.5 h, 2 μM came out at 13.7.
As for `Cc1cccc(C(c2c[nH]cn2)c2cccc(OCCNS(C)(=O)=O)c2F)c1C` (centres unmarked) [compound 55], the EC50 in data set [1] was in the range of 10 to 50 nM. The Ki in data set [2] is 10 to 50 nM. For the same compound, the efflux ratio at 2.5 h, 2 μM in data set [3] worked out at 26.4.
As to `Cc1cccc(C(c2c[nH]cn2)c2cccc(C(N)=O)n2)c1C` (centres unmarked) [compound 56], the EC50 in data set [1] fell in the range of 10 to 50 nM. In addition, the Ki in data set [2] lay in the range of 10 to 50 nM. The efflux ratio at 2.5 h, 2 μM in data set [3] came out at 11.5.
With `Cc1cccc(C(c2cccc(NC(=O)OC3CCOC3)c2)c2c[nH]cn2)c1C` (centres unmarked) [compound 64], in data set [1], the EC50 lay within 10 to 50 nM. In addition, the inhibition constant (Ki) in data set [2] lay in the range of 10 to 50 nM. Also, the efflux ratio at 2.5 h, 2 μM in data set [3] came out at 24.3.
For the compound `CCS(=O)(=O)Nc1cccc(C(c2c[nH]cn2)c2cccc(C)c2C)c1` (centres unmarked) [compound 67], the EC50 in data set [1] is 10 to 50 nM. In data set [2], the Ki lay within 10 to 50 nM. Also, the efflux ratio at 2.5 h, 2 μM in data set [3] stood at 29.
Take `CONC(=O)Nc1cccc(C(c2c[nH]cn2)c2cccc(C)c2C)c1` (centres unmarked) [compound 72]: the EC50 in data set [1] was in the range of 10 to 50 nM. In addition, the Ki in data set [2] was 10 to 50 nM. For the same compound, in data set [3], the efflux ratio at 2.5 h, 2 μM is 32.9.
`Cc1cccc(C(c2cccc(NC(=O)CC3CCOC3)c2)c2c[nH]cn2)c1C` (centres unmarked) [compound 73]: in data set [1], the EC50 fell in the range of 10 to 50 nM. The Ki in data set [2] was in the range of 10 to 50 nM. In addition, in data set [3], the efflux ratio at 2.5 h, 2 μM stood at 96.1.
In the case of `Cc1cccc(C(c2cccc(NS(=O)(=O)CCC#N)c2)c2c[nH]cn2)c1C` (centres unmarked) [compound 74], the EC50 in data set [1] lay in the range of 50 to 250 nM. In data set [2], the Ki fell in the range of 10 to 50 nM. Besides, the efflux ratio at 2.5 h, 2 μM in data set [3] was 93.5.
For the compound `Cc1cccc(C(c2cccc(NC(=O)CC3CCOCC3)c2)c2c[nH]cn2)c1C` (centres unmarked) [compound 80], in data set [1], the EC50 lay in the range of 10 to 50 nM. Besides, the Ki in data set [2] is < 10 nM. For the same compound, the efflux ratio at 2.5 h, 2 μM in data set [3] stood at 112.
Regarding `Cc1cccc(C(c2cccc(NC(=O)CN3CCOCC3)c2)c2c[nH]cn2)c1C` (centres unmarked) [compound 81], in data set [1], the EC50 was in the range of 10 to 50 nM. Besides, the Ki in data set [2] is < 10 nM. The efflux ratio at 2.5 h, 2 μM in data set [3] came to 62.5.
The corresponding values for `Cc1cccc(C(c2cccc(C(=O)NOCC3CCOC3)c2)c2c[nH]cn2)c1C` (centres unmarked) [compound 95] are 10 to 50 nM, < 10 nM and 102.
In the case of `Cc1cccc(C(c2cccc(C(=O)NCC3CCOCC3)c2)c2c[nH]cn2)c1C` (centres unmarked) [compound 98], the efflux ratio at 2.5 h, 2 μM in data set [3] amounted to 82.6.
For the compound `Cc1cccc(C(c2cccc(C(=O)NCC3CCC(O)CC3)c2)c2c[nH]cn2)c1C` (centres unmarked) [compound 99], the EC50 in data set [1] lay in the range of 10 to 50 nM. In addition, the Ki in data set [2] was in the range of 10 to 50 nM. Moreover, the efflux ratio at 2.5 h, 2 μM in data set [3] amounted to 141.
In the case of `Cc1cccc(C(c2cccc(NC(=O)CCC3CCOCC3)c2)c2c[nH]cn2)c1C` (centres unmarked) [compound 101], in data set [1], the EC50 lay in the range of 10 to 50 nM. In data set [2], the Ki lay within 10 to 50 nM. Further, in data set [3], the efflux ratio at 2.5 h, 2 μM amounted to 104.
Take `Cc1cccc(C(c2cccc(NC(=O)Cc3ccncc3)c2)c2c[nH]cn2)c1C` (centres unmarked) [compound 103]: in data set [1], the EC50 lay in the range of 10 to 50 nM. Moreover, the Ki in data set [2] is 10 to 50 nM. In addition, the efflux ratio at 2.5 h, 2 μM in data set [3] was found to be 149.
As to `Cc1cccc(C(c2cccc(S(=O)(=O)NCC3CCOCC3)c2)c2c[nH]cn2)c1C` (centres unmarked) [compound 105], the EC50 in data set [1] lay within 10 to 50 nM. In addition, the Ki in data set [2] is < 10 nM. In addition, in data set [3], the efflux ratio at 2.5 h, 2 μM was found to be 65.8.
In the same order, the values of `Cc1cccc(C(Cc2cccc(NC(=O)CC3CCOCC3)c2)c2c[nH]cn2)c1C` (centres unmarked) [compound 108] are 10 to 50 nM, < 10 nM and 72.2.
The corresponding values for `Cc1cccc(C(c2cccc(NC(=O)NC3CC3)c2)c2c[nH]cn2)c1C` (centres unmarked) [compound 109] are 10 to 50 nM, 10 to 50 nM and 94.8.
In the case of `CONC(=O)c1cccc(CC(NC2=NCCO2)c2ccccc2OC)c1` (centres unmarked) [compound 503, 3-[2-(4,5-dihydro-1,3-oxazol-2-ylamino)-2-(2-methoxyphenyl)ethyl]-N-methoxybenzamide], the EC50 in data set [1] is 50 to 250 nM. In data set [2], the Ki is < 10 nM.
Regarding `COc1ccccc1C(Cc1cccc(NS(C)(=O)=O)c1)N=C1NCCN1` (centres unmarked) [compound 505, N-{3-[2-(imidazolidin-2-ylideneamino)-2-(2-methoxyphenyl)ethyl]phenyl}methanesulfonamide], the EC50 in data set [1] lay in the range of 50 to 250 nM. Moreover, in data set [2], the Ki was < 10 nM.
The corresponding values for `CONC(=O)c1cccc(CC(NC2=NCCS2)c2cccc(Cl)c2)c1` (centres unmarked) [compound 506] are 50 to 250 nM and < 10 nM.
For the compound `COc1ccccc1C(Cc1cccc(NS(C)(=O)=O)c1)NC1=NCCO1` (centres unmarked) [compound 509], the EC50 in data set [1] lay within 50 to 250 nM. Also, in data set [2], the Ki was < 10 nM.
In the same order, the values of `COc1ccccc1C(Cc1cccc(NS(=O)(=O)CC2CCOCC2)c1)NC1=NCCS1` (centres unmarked) [compound 515] are 50 to 250 nM and < 10 nM.
In the same order, the values of `CS(=O)(=O)Nc1cccc(CC(Oc2c(Cl)cccc2Cl)C2=NCCN2)c1` (centres unmarked) [compound 516] are 50 to 250 nM and 50 to 250 nM.
For `CNS(=O)(=O)c1ccc(CC(Oc2c(Cl)cccc2Cl)C2=NCCN2)cc1` (centres unmarked) [compound 519], the EC50 in data set [1] lay within 50 to 250 nM. Besides, the Ki in data set [2] was in the range of 10 to 50 nM.
